Molecules are shown by their SMILES. Where a name gives a salt, the structure may show the parent alone.

In general, IC50 refers to the concentration needed to halve the response being measured.

ROCK2, sequence (O75116 whole entry, species assumed): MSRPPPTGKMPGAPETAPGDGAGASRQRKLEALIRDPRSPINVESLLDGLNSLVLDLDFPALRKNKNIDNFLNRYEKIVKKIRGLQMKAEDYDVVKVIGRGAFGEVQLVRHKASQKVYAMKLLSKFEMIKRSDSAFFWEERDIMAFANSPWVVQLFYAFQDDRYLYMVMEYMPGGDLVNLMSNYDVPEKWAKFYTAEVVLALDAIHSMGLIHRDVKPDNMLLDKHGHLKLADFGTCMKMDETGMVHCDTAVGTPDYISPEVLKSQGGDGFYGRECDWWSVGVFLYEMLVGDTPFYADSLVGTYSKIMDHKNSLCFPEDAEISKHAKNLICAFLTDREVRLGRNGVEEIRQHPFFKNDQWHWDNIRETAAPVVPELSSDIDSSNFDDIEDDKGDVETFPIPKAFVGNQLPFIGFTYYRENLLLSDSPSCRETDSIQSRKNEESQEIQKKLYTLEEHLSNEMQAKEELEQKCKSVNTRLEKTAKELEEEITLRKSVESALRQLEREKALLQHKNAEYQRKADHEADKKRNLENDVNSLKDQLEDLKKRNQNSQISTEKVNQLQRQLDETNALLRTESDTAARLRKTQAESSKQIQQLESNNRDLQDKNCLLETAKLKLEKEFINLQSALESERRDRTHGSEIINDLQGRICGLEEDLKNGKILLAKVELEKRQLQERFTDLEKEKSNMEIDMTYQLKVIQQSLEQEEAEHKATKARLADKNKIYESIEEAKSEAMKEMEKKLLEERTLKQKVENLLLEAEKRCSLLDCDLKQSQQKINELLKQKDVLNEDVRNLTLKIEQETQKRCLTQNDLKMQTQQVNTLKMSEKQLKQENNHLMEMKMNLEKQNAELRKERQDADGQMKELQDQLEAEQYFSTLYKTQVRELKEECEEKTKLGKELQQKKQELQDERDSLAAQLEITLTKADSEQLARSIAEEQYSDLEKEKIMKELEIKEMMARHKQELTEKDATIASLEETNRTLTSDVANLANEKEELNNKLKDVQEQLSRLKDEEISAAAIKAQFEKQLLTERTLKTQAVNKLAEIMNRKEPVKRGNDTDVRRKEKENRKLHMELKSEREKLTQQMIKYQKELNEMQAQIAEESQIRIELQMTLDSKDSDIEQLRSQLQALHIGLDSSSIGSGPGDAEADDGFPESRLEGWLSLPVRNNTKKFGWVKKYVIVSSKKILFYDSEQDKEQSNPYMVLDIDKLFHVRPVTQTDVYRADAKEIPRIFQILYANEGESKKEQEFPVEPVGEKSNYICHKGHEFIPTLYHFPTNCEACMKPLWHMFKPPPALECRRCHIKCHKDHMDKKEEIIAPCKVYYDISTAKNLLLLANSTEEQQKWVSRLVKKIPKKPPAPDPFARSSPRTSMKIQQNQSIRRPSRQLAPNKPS

One experiment has as its target ROCK2 (Homo sapiens, UniProt O75116). The experiment in a line: ROCK2 kinase inhibition assay (LABCHIP 3000 Reader, FITC peptide substrate).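 Further: rho kinase reaction read by separating phosphorylated from unphosphorylated peptide on chip, with inhibition of kinase activity computed per concentration across a dose-response series.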
Conditions: not given
With `NC(=O)c1cccnc1OC1CC2(CC(NC(=O)N3CCc4ccccc43)C2)C1` (centres unmarked) [Example 12, N-(6-((3-carbamoylpyridin-2-yl)oxy)spiro[3.3]heptan-2-yl)indoline-1-carboxamide], the IC50 lay within 50 to 250 nM. `Cn1nc(C(=O)N[C@H]2CC3(C2)C[C@H](Oc2ncccc2C(N)=O)C3)cc1OCCC(F)(F)F` (some centres unmarked) [Example 91, 2-((aR 6-(1-methyl-5-(3,3,3-trifluoropropoxy)-1H-pyrazole-3-carboxamido)spiro[3.3]heptan-2-yl)oxy) nicotinamide, trifluoroacetate] displayed an IC50 of 50 to 250 nM. As to `N#Cc1cc(C(=O)N[C@H]2CC3(C2)C[C@H](Oc2ncccc2C(N)=O)C3)cc(C2CC2)c1` (stereo partly drawn) [Example 183, 2-(((aR)-6-(3-cyano-5-cyclopropylbenzamido)spiro[3.3]heptan-2-yl)oxy) nicotinamide, trifluoroacetate], the IC50 was in the range of 5 to 50 nM. For `NC(=O)c1cccnc1O[C@H]1CC2(C[C@H](NC(=O)c3cnn4c(CCC(F)(F)F)c(OCCC(F)(F)F)ccc34)C2)C1` (stereo partly drawn) [Example 115, N-((aR)-6-((3-carbamoylpyrdin-2-yl)oxy)spiro[3.3]heptan-2-yl)-6-(3,3,3-trifluoropropoxy)-7-(3,3,3-trifluoropropyl) pyrazolo[1,5-a]pyridine-3-carboxamdie, trifluoroacetate], the IC50 is 5 to 50 nM. With `CC(C)(O)COc1ccc2c(C(=O)NC3CC4(C3)CC(Oc3cc(-c5cccc(COC(=O)NCCC(=O)O)c5)ccc3C(N)=O)C4)cnn2c1` (centres unmarked) [Example 249, 3-((((4′-carbamoyl-3′-((6-(6-(2-hydroxy-2-methylpropoxy)pyrazolo[1,5-a]pyridine-3-carboxamido)spiro[3.3]heptan-2-yl)oxy)-[1,1′-biphenyl]-3-yl)methoxy)carbonyl)amino)propanoic acid], the IC50 was less than 5 nM. For `CC(C)(O)COc1ccc2c(C(=O)NC3CC4(C3)CC(Oc3cc(CCCN5CCOCC5)ccc3C(N)=O)C4)cnn2c1C1CC1` (centres unmarked) [Example 265, N-(6-(2-carbamoyl-5-(3-morpholinopropyl)phenoxy)spiro[3.3]heptan-2-yl)-7-cyclopropyl-6-(2-hydroxy-2-methylpropoxy)pyrazolo[1,5-a]pyridine-3-carboxamide], the IC50 was in the range of 5 to 50 nM. Still for that read-out and setting: as for `COc1ccc(C(N)=O)c(O[C@H]2CC3(C[C@H](NC(=O)c4cnn5c(CCC(F)(F)F)c(OCC(C)(C)O)ccc45)C3)C2)n1` (stereo partly drawn) [Example 168, N-((aR)-6-((3-carbamoyl-6-methoxypyridin-2-yl)oxy)spiro[3.3]heptan-2-yl)-6-(2-hydroxy-2-methylpropoxy)-7-(3,3,3-trifluoropropyl)pyrazolo [1,5-a]pyridine-3-carboxamide], the figure is less than 5 nM. As to `CC(C)(O)COc1ccc2c(C(=O)NC3CC4(C3)CC(Oc3cc(-c5cccc(Cl)n5)ccc3C(N)=O)C4)cnn2c1` (centres unmarked) [Example 248], the IC50 was in the range of 5 to 50 nM. Compound `NC(=O)c1cccnc1O[C@H]1CC2(C[C@H](NC(=O)c3nn(C(F)F)c4cc(OCc5ccccc5)ccc34)C2)C1` (stereo partly drawn) [Example 171, 6-(benzyloxy)-N-((aR)-6-((3-carbamoylpyridin-2-yl)oxy)spiro[3.3]heptan-2-yl)-1-(difluoromethyl)-1H-indazole-3-carboxamide, trifluoroacetate] showed an IC50 of 5 to 50 nM. The compound `NC(=O)c1cccnc1O[C@H]1CC2(C[C@H](NC(=O)c3c(C(F)(F)F)nc4ccc(Cl)cn34)C2)C1` (stereo partly drawn) [Example 139, N-((aR)-6-((3-carbamoylpyridin-2-yl)oxy)spiro[3.3]heptan-2-yl)-6-chloro-2-(trifluoromethyl) imidazo[1,2-a]pyridine-3-carboxamide, trifluoroacetate] had an IC50 of 250 to 2500 nM. Take `CC(C)(O)COc1ccc2c(C(=O)NC3CC4(C3)CC(Oc3cc(-c5ccccc5C(F)(F)F)ccc3C(N)=O)C4)cnn2c1` (centres unmarked) [Example 228, N-(6-((4-carbamoyl-2′-(trifluoromethyl)-[1,1′-biphenyl]-3-yl)oxy)spiro[3.3]heptan-2-yl)-6-(2-hydroxy-2-methylpropoxy)pyrazolo[1,5-a]pyridine-3-carboxamide]: the IC50 fell in the range of 50 to 250 nM.

Take `COc1ccc(C(N)=O)c(O[C@H]2CC3(C[C@H](NC(=O)c4nn(CC(C)(C)O)c5ccc(F)cc45)C3)C2)n1` (stereo partly drawn) [Example 169, N-((aR)-6-((3-carbamoyl-6-methoxypyridin-2-yl)oxy)spiro[3.3]heptan-2-yl)-5-fluoro-1-(2-hydroxy-2-methylpropyl)-1H-indazole-3-carboxamide]: the 50% inhibitory concentration (IC50) lay in the range of 5 to 50 nM.

In the case of `[H][C@]1(Oc2ncccc2C(N)=O)C[C@@]2(C[C@H](NC(=O)c3cc(C#N)cc(-c4cnc(C)s4)c3)C2)C1` (stereo partly drawn) [Example 180, 2-(((aR)-6-(3-cyano-5-(2-methylthiazol-5-yl)benzamido)spiro[3.3]heptan-2-yl)oxy)nicotinamide, TFA], the IC50 is less than 5 nM. In turn, `Cc1ncsc1CCOc1ccc2c(C(=O)N[C@H]3CC4(C3)C[C@H](Oc3ncccc3C(N)=O)C4)cnn2c1` (stereo partly drawn) [Example 128, N-((aR)-6-((3-carbamoylpyridin-2-yl)oxy)spiro[3.3]heptan-2-yl)-6-(2-(4-methylthiazol-5-yl)ethoxy) pyrazolo[1,5-a]pyridine-3-carboxamide, trifluoroacetate] had a half-maximal inhibitory concentration (IC50) of 5 to 50 nM. The compound `[H][C@]1(Oc2ncccc2C(N)=O)C[C@@]2(C[C@H](NC(=O)c3cnn(-c4ccc(N5CCOCC5)cc4)c3C)C2)C1` (some centres unmarked) [Example 378] yielded an IC50 of 50 to 250 nM. On the same count and under the same terms, the figure for `NC(=O)c1cccnc1OC1CC2(CC(NC(=O)c3cnn4cc(OC(CF)CF)ccc34)C2)C1` (centres unmarked) [Example 9, N-(6-((3-carbamoylpyridin-2-yl)oxy)spiro[3.3]heptan-2-yl)-6-((1,3-difluoropropan-2-yl)oxy)pyrazolo[1,5-a]pyridine-3-carboxamide] is 5 to 50 nM.

The same experiment, now with this note: read-out: ROCK2 Activity (ROCK2 IC50); 5 μM ATP, 1.5 μM peptide substrate, pH 7.5.
Regarding `Cn1cc(-c2ccc3c(C(=O)NC4CC5(C4)CC(Oc4ncccc4C(N)=O)C5)nn(CC4(O)CC(F)(F)C4)c3c2)cn1` [Example 404, N-((aR)-6-((3-carbamoylpyridin-2-yl)oxy)spiro[3.3]heptan-2-yl)-1-((3,3-difluoro-1-hydroxycyclobutyl)methyl)-6-(1-methyl-1H-pyrazol-4-yl)-1H-indazole-3-carboxamide, TFA], the 50% inhibitory concentration (IC50) lay in the range of 5 to 50 nM.

`CS(=O)(=O)c1cc(Br)cc(C(=O)NC2CC3(C2)CC(Oc2ncccc2C(N)=O)C3)c1` [Example 119, 2-((aR)-6-(3-bromo-5-(methylsulfonyl)benzamido)spiro[3.3]heptan-2-yl)oxy) nicotinamide, trifluoroacetate]: the 50% inhibitory concentration (IC50) was 5 to 50 nM. On to `NC(=O)c1cccnc1OC1CC2(CC(NC(=O)c3nn(CCC(F)(F)F)c4cc(F)ccc34)C2)C1` [Example 105, N-((aR)-6-((3-carbamoylpyridin-2-yl)oxy)spiro[3.3]heptan-2-yl)-6-fluoro-1-(3,3,3-trifluoropropyl)-1H-indazole-3-carboxamide, trifluoroacetate], for which the IC50 is less than 5 nM.

As for `CC1(O)CCN(c2cc(C(=O)NC3CC4(C3)CC(Oc3ncccc3C(N)=O)C4)cc(C(F)(F)F)c2)CC1` [Example 450, 2-(((aR)-6-(3-(4-hydroxy-4-methylpiperidin-1-yl)-5-(trifluoromethyl)benzamido)spiro[3.3]heptan-2-yl)oxy)nicotinamide], the IC50 was 5 to 50 nM.

The values are drawn from patent publication US10829501B2 (BRISTOL-MYERS SQUIBB COMPANY, priority 2016, dated 2020).
